In patent US7579348B2, “Derivatives of 8-substituted xanthines” (PGxHealth, LLC, priority 2005, dated 2009) one finds Ki data, which are given here for 12 compounds.

pKi: −log10 of the molar value.

In the test the target is T1, rat A2B receptors (rA2B) (Rattus norvegicus, UniProt P29276).
T1 construct: expressed in transfected cells; membranes)
T1 sequence (P29276 1-332): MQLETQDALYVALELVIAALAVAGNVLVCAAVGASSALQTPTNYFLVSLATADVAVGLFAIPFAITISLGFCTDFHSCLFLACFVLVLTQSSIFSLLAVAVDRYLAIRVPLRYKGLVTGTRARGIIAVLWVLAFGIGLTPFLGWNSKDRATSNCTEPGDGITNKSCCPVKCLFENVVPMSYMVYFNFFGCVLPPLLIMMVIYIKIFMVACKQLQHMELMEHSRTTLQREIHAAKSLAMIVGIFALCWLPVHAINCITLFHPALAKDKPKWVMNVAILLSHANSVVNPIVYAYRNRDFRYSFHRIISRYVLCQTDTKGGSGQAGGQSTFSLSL
The test is described as follows: Radioligand binding, displacement of specific [125I]ABOPX binding. The conditions noted are these: displacement of specific [125I]ABOPX binding at rat A2B receptors expressed in HEK-293 cells; read-out: RatA2B Ki. The text has this: The rat A2B receptor cDNA was subcloned into the expression plasmid pDoubleTrouble using techniques described in Robeva, A. et al., Biochem. Pharmacol., 51, 545-555 (1996). The plasmid was amplified in competent JM109 cells and plasmid DNA isolated using Wizard Megaprep columns (Promega Corporation, Madison, Wis.). A2B adenosine receptors were introduced into HEK-293 cells by means of Lipofectin as described in Felgner, P. L. et al., Proc. Natl. Acad. Sci. USA, 84, 7413-7417 (1987).
Transfected HEK cells were grown under 5% CO2/[…] humidified atmosphere at a temperature of 37° C. Colonies were selected by growth of cells in 0.6 mg/mL G418. Transfected cells were maintained in DMEM supplemented with Hams F 12 nutrient mixture (1/1), 10% newborn calf serum, 2 mM glutamine and containing 50 IU/mL penicillin, […], and 0.2 mg/mL Geneticin (G418, Boehringer Mannheim). Cells were cultured in 10 cm diameter round plates and subcultured when grown confluent (approximately after 72 hours).
At A2B receptors: Confluent monolayers of HEK-A2B cells were washed with PBS followed by ice cold Buffer A (10 mM HEPES, 10 mM EDTA, pH 7.4) with protease inhibitors (10 μg/mL benzamidine, 100 μM phenylmethanesulfonyl fluoride, and 2 μg/mL of each aprotinin, pepstatin and leupeptin). The cells were homogenized in a Polytron (Brinkmann) for 20s, centrifuged at 30,000 ×g, and the pellets washed twice with buffer HE (10 mM HEPES, 1 mM EDTA, pH 7.4 with protease inhibitors). The final pellet was resuspended in buffer HE, supplemented with 10% sucrose and frozen in aliquots at −80° C. For binding assays membranes were thawed and diluted 5-10 fold with HE to a final protein concentration of approximately 1 mg/mL. To determine protein concentrations, membranes, and bovine serum albumin standards were dissolved in 0.2% NaOH/0.01% SDS and protein determined using fluorescamine fluorescence. Stowell, C. P. et al., Anal. Biochem., 85, 572-580 (1978).
Saturation binding assays for rat A2B adenosine receptors were performed with [^3H]ZM214,385 (17 Ci/mmol, Tocris Cookson, Bristol UK) (Ji, X. et al., Drug Design Discov., 16, 216-226 (1999)) or ^125I-ABOPX (2200 Ci/mmol). To prepare 125I-ABOPX, 10 μL of 1 mM ABOPX in methanol/1 M NaOH (20:1) was added to 50 μL of 100 mM phosphate buffer, pH 7.3. One or 2 mCi of Na^125I was added, followed by 10 μL of 1 mg/mL chloramine-T in water. After incubation, 20 minutes at room temperature, 50 μL of 10 mg/mL Na-metabisulfite in water was added to quench the reaction. The reaction mixture was applied to a C18 HPLC column, eluting with a mixture of methanol and 5 mM phosphate, pH 6.0. After 5 min at 35% methanol, the methanol concentration was ramped to 100% over 15 min. Unreacted ABOPX eluted in 11-12 minutes; ^125I-ABOPX eluted at 18-19 min in a yield of 50-60% with respect to the initial ^125I.
In equilibrium binding assays the ratio of ^127I/^125I-ABOPX was 10-20/1. Radioligand binding experiments were performed in triplicate with 20-25 μg membrane protein in a total volume of 0.1 mL HE buffer supplemented with 1 U/mL adenosine deaminase and 5 mM MgCl2. The incubation time was 3 h at 21° C. Nonspecific binding was measured in the presence of 100 μM NECA. Competition experiments were carried out using 0.6 nM ^125I-ABOPX. Membranes were filtered on Whatman GF/C filters using a Brandel cell harvester (Gaithersburg, Md.) and washed 3 times over 15-20 seconds with ice cold buffer (10 mM Tris, 1 mM MgCl2, pH 7.4). Bmax and KD values were calculated by Marquardt's nonlinear least squares interpolation for single a site binding models. Marquardt, D. M., J. Soc. Indust. Appl. Math., 11, 431-441.21 (1963). Ki values for different compounds were derived from IC50 values as described. Linden, J., J. Cycl. Nucl. Res., 8, 163-172 (1982). Data from replicate experiments are tabulated as means ±SEM. […]
For orientation: pKi means the Ki on a negative log10 scale, so that one unit is a factor of ten. `CCCn1c(=O)c2[nH]c(-c3ccc(NN)nc3)nc2n(CCC)c1=O` [Compound 1, 1,3-Dipropyl-8-[6-hydrazino-3-pyridyl]xanthine]: the pKi is 6.30 to 7.00.
Take `CCn1c(=O)c2[nH]c(-c3ccc(-n4nc(C)cc4-c4ccccc4)nc3)nc2n(CC)c1=O` [Compound 2, 1,3-diethyl-8-(6-(3-methyl-5-phenyl-1H-pyrazol-1-yl)pyridin-3-yl)-1H-purine-2,6(3H,7H)-dione]: the pKi is 5.30 to 6.30.
As for `CCn1c(=O)c2[nH]c(-c3ccc4nnc(C(F)(F)F)n4c3)nc2n(CC)c1=O` [Compound 3, 1,3-Diethyl-8-(3-(trifluoromethyl)-[1,2,4]triazolo[4,3,a]pyridin-6-yl)-1H-purine-2,6(3H,7H)-dione], the pKi is 6.30 to 7.00.
Turning to `CCn1c(=O)c2[nH]c(-c3ccc4nnc(C)n4c3)nc2n(CC)c1=O` [Compound 4, 1,3-Diethyl-8-(3-methyl-[1,2,4]triazolo[4,3,a]pyridin-6-yl)-1H-purine-2,6(3H,7H)-dione], the pKi is 6.30 to 7.00.
Regarding `CCCn1c(=O)c2[nH]c(-c3ccc(-n4nc(C)cc4-c4ccccc4)nc3)nc2n(CCC)c1=O` [Compound 5, 8-(6-(3-methyl-5-phenyl-1H-pyrazol-1-yl)pyridin-3-yl)-1,3-Dipropyl-1H-purine-2,6(3H,7H)-dione], the negative logarithm of the Ki (pKi) was 6.30 to 7.00.
In the case of `CCCn1c(=O)c2[nH]c(-c3ccc(-n4nc(C(F)(F)F)cc4-c4cccs4)nc3)nc2n(CCC)c1=O` [Compound 8, 8-(6-(3-(trifluoromethyl)-5-(thiophen-2-yl)-1H-pyrazol-1-yl)pyridin-3-yl)-1,3-Dipropyl-1H-purine-2,6(3H, 7H)-dione], the negative logarithm of the Ki (pKi) is 6.30 to 7.00.
`CCCn1c(=O)c2[nH]c(-c3ccc(-n4nc(C(F)(F)F)cc4-c4ccco4)nc3)nc2n(CCC)c1=O` [Compound 9, 8-(6-(3-(trifluoromethyl)-5-(furan-2-yl)-1H-pyrazol-1-yl)pyridin-3-yl)-1,3-Dipropyl-1H-purine-2,6(3H, 7H)-dione]: the pKi was more than 7.00.
As for `CCCn1c(=O)c2[nH]c(-c3ccc(-n4nc(C)cc4C)nc3)nc2n(CCC)c1=O` [Compound 10], the pKi is 6.30 to 7.00.
Take `CCCn1c(=O)c2[nH]c(-c3ccc(-n4nc(C(=O)OCC)cc4C)nc3)nc2n(CCC)c1=O` [Compound 13]: the pKi was 6.30 to 7.00.
For the compound `CCCn1c(=O)c2[nH]c(-c3ccc4nncn4c3)nc2n(CCC)c1=O` [Compound 14, 1,3-Dipropyl-8-([1,2,4]triazolo[4,3,a]pyridin-6-yl)-1H-purine-2,6(3H, 7H)-dione], the pKi was 6.30 to 7.00.
Consider `CCCn1c(=O)c2[nH]c(-c3ccc(-n4nc(-c5ccccc5)cc4N)nc3)nc2n(CCC)c1=O` [Compound 15, 8-(6-(5-Amino-3-phenyl-1H-pyrazol-1-yl)pyridin-3-yl)-1,3-dipropyl-1H-purine-2,6(3H, 7H)-dione], for which the pKi is more than 7.00.
Take `CCCn1c(=O)c2[nH]c(-c3ccc(-n4nc(-c5ccco5)cc4N)nc3)nc2n(CCC)c1=O` [Compound 16, 8-(6-(5-Amino-3-(furan-2-yl)-1H-pyrazol-1-yl)pyridin-3-yl)-1,3-dipropyl-1H-purine-2,6(3H, 7H)-dione]: the pKi was more than 7.00.
